According to ChEMBL document CHEMBL5385915 (J Med Chem, 2024):
Active and inactive are the calls of the source. The rule behind the calls is not given here.

How the values were obtained:
[1] = system: Mycobacterium tuberculosis variant bovis; assay: Downregulation of hadA gene expression in Mycobacterium bovis BCG at 1 times MIC incubated for 8 hrs by RNA-sequencing analysis; assay type: functional
[2] = system: Mycobacterium tuberculosis variant bovis; assay: Downregulation of fabG1 gene expression in Mycobacterium bovis BCG at 1 times MIC incubated for 8 hrs by RNA-sequencing analysis; assay type: functional
[3] = system: Mycobacterium tuberculosis variant bovis; assay: Downregulation of inhA gene expression in Mycobacterium bovis BCG at 1 times MIC incubated for 8 hrs by RNA-sequencing analysis; assay type: functional
[4] = system: Mycobacterium tuberculosis variant bovis; assay: Downregulation of acpM gene expression in Mycobacterium bovis BCG at 1 times MIC incubated for 8 hrs by RNA-sequencing analysis; assay type: functional
[5] = system: Mycobacterium tuberculosis variant bovis; assay: Downregulation of mmaA2 gene expression in Mycobacterium bovis BCG at 1 times MIC incubated for 8 hrs by RNA-sequencing analysis; assay type: functional
[6] = system: Mycobacterium tuberculosis variant bovis; assay: Downregulation of mmaA3 gene expression in Mycobacterium bovis BCG at 1 times MIC incubated for 8 hrs by RNA-sequencing analysis; assay type: functional
[7] = system: Mycobacterium tuberculosis variant bovis; assay: Downregulation of fbpA gene expression in Mycobacterium bovis BCG at 1 times MIC incubated for 8 hrs by RNA-sequencing analysis; assay type: functional
[8] = system: Mycobacterium tuberculosis variant bovis; assay: Downregulation of fbpD gene expression in Mycobacterium bovis BCG at 1 times MIC incubated for 8 hrs by RNA-sequencing analysis; assay type: functional
[9] = system: Mycobacterium tuberculosis variant bovis; assay: Downregulation of desA2 gene expression in Mycobacterium bovis BCG at 1 times MIC incubated for 8 hrs by RNA-sequencing analysis; assay type: functional
[10] = system: Mycobacterium tuberculosis variant bovis; assay: Upregulation of cmtR gene expression in Mycobacterium bovis BCG at 1 times MIC incubated for 8 hrs by RNA-sequencing analysis; assay type: functional
[11] = system: Mycobacterium tuberculosis variant bovis; assay: Upregulation of zur gene expression in Mycobacterium bovis BCG at 1 times MIC incubated for 8 hrs by RNA-sequencing analysis; assay type: functional
[12] = system: Mycobacterium tuberculosis variant bovis; assay: Upregulation of ideR gene expression in Mycobacterium bovis BCG at 1 times MIC incubated for 8 hrs by RNA-sequencing analysis; assay type: functional
[13] = system: Mycobacterium tuberculosis variant bovis; assay: Upregulation of tcrYX gene expression in Mycobacterium bovis BCG at 1 times MIC incubated for 8 hrs by RNA-sequencing analysis; assay type: functional
[14] = system: Mycobacterium tuberculosis variant bovis; assay: Upregulation of mbtB gene expression in Mycobacterium bovis BCG at 1 times MIC incubated for 8 hrs by RNA-sequencing analysis; assay type: functional
[15] = system: Mycobacterium tuberculosis variant bovis; assay: Upregulation of mbtC gene expression in Mycobacterium bovis BCG at 1 times MIC incubated for 8 hrs by RNA-sequencing analysis; assay type: functional
[16] = system: Mycobacterium tuberculosis variant bovis; assay: Upregulation of mbtD gene expression in Mycobacterium bovis BCG at 1 times MIC incubated for 8 hrs by RNA-sequencing analysis; assay type: functional
[17] = system: Mycobacterium tuberculosis variant bovis; assay: Effect on nuoA-N gene expression in Mycobacterium bovis BCG at 1 times MIC incubated for 8 hrs by RNA-sequencing analysis; assay type: functional
[18] = system: Mycobacterium tuberculosis variant bovis; assay: Effect on qcrA-C gene expression in Mycobacterium bovis BCG at 1 times MIC incubated for 8 hrs by RNA-sequencing analysis; assay type: functional
[19] = system: Mycobacterium tuberculosis variant bovis; assay: Effect on ctaC-E gene expression in Mycobacterium bovis BCG at 1 times MIC incubated for 8 hrs by RNA-sequencing analysis; assay type: functional
[20] = system: Mycobacterium tuberculosis variant bovis; assay: Effect on cydA-D gene expression in Mycobacterium bovis BCG at 1 times MIC incubated for 8 hrs by RNA-sequencing analysis; assay type: functional
[21] = system: Mycobacterium tuberculosis variant bovis; assay: Effect on narG-J gene expression in Mycobacterium bovis BCG at 1 times MIC incubated for 8 hrs by RNA-sequencing analysis; assay type: functional
[22] = system: Mycobacterium tuberculosis variant bovis; assay: Upregulation of mmpL5 gene expression in Mycobacterium bovis BCG at 1 times MIC incubated for 8 hrs by RNA-sequencing analysis; assay type: functional
[23] = system: Mycobacterium tuberculosis variant bovis; assay: Upregulation of mmpS5 gene expression in Mycobacterium bovis BCG at 1 times MIC incubated for 8 hrs by RNA-sequencing analysis; assay type: functional
[24] = system: Mycobacterium tuberculosis variant bovis BCG; assay: Inhibition of cell wall biosynthesis in Mycobacterium bovis BCG assessed as reduction in trehalose monomycolate accumulation at 0.5 times MIC incubated for 12 hrs in presence of [14C]acetate by TLC based autoradiography analysis; assay type: functional, organism-based
[25] = system: Mycobacterium tuberculosis variant bovis BCG; assay: Inhibition of cell wall biosynthesis in Mycobacterium bovis BCG assessed as reduction in trehalose dimycolate accumulation at 0.5 times MIC incubated for 12 hrs in presence of [14C]acetate by TLC based autoradiography analysis; assay type: functional, organism-based
[26] = system: Mycobacterium tuberculosis variant bovis BCG; assay: Inhibition of cell wall biosynthesis in Mycobacterium bovis BCG assessed as formation of cytoplasmic membrane phospholipids at 0.5 times MIC incubated for 12 hrs in presence of [14C]acetate by TLC based autoradiography analysis; assay type: functional, organism-based
[27] = system: Mycobacterium tuberculosis variant bovis BCG; assay: Inhibition of mycolic acid biosynthesis in Mycobacterium bovis BCG assessed as decrease in alpha mycolic acid transfer onto cell wall arabinogalactan at 0.5 times MIC incubated for 12 hrs in presence of [14C]acetate by TLC based autoradiography analysis; assay type: functional, organism-based
[28] = system: Mycobacterium tuberculosis variant bovis BCG; assay: Inhibition of mycolic acid biosynthesis in Mycobacterium bovis BCG assessed as decrease in keto mycolic acid transfer onto cell wall arabinogalactan at 0.5 times MIC incubated for 12 hrs in presence of [14C]acetate by TLC based autoradiography analysis; assay type: functional, organism-based
[29] = system: Mycobacterium tuberculosis variant bovis BCG; assay: Inhibition of late-stage mycolic acid biosynthesis in Mycobacterium bovis BCG at 5 times MIC incubated for 6 hrs by TLC based autoradiography analysis; assay type: functional, organism-based

CNC[C@@H]1C[C@H](c2ccc(OC(F)(F)F)cc2)N1Cc1ccccc1OC(F)(F)F (racemic)
Activity [1]: Active | Activity [2]: Active | Activity [3]: Active | Activity [4]: Active | Activity [5]: Active | Activity [6]: Active | Activity [7]: Active | Activity [8]: Active | Activity [9]: Active | Activity [10]: Active | Activity [11]: Active | Activity [12]: Active | Activity [13]: Active | Activity [14]: Active | Activity [15]: Active | Activity [16]: Active | Activity [17]: Active | Activity [18]: Active | Activity [19]: Active | Activity [20]: Active | Activity [21]: Active | Activity [22]: Active | Activity [23]: Active | inhibition [24]: Active | inhibition [25]: Active | inhibition [26]: inactive | inhibition [27]: Active | inhibition [28]: Active | inhibition [29]: Active

Brc1cc(Br)cc([C@H]2C[C@@H](CN3CCCC3)N2Cc2ccccc2Br)c1 (racemic)
inhibition [29]: Active
